The results in this text go back to PubChem BioAssay (NCI).

Assay in all cases: NCI anticancer screen, dose series, 48 h
Assay [1] deals with BT-549 breast.
In assay [2] the test system is CCRF-CEM leukemia.
Assay [3] concerns COLO 205 colon.
Assay [4] concerns DU-145 prostate.
Assay [5] has as its system EKVX NSCLC.
Assay [6] relates to HCC-2998 colon.
Assay [7] concerns MOLT-4 leukemia.
Assay [8] relates to OVCAR-8 ovarian.
For assay [9], the system named is SF-295 CNS.
For assay [10], the system named is RPMI-8226 leukemia.

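Where inhibition never reached the appropriate level, the endpoint shown equals the highest concentration tested. Otherwise, values were interpolated linearly from a five-concentration, 48-hour dose response in 96-well plates. The concentration for 50% growth inhibition is given as GI50. At the TGI there is no net growth.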 *1 amine or outer side, *2 acyl side, *3 side chain or, on linkers, in order; H or OH if unused. Where a SMILES comes first, the peptide text is derived from it. [ ]: non-standard residue; d: D form. The star is where a group is joined. ξ: configuration not given here. X15 = CCN(CC)c1ccc2cc(N*)c(=O)oc2c1; dIva = CC[C@@](C)(N)C(=O)O; X14 = O=C(OCCN[*:1])[*:2]; Aib = CC(C)(N)C(=O)O; ξP = O=C(O)C1CCCN1; βAla = NCCC(=O)O

Take `CC12CC(OC(=O)[C@]1(C)O)[C@@H]([C@]1(O)CC[C@H]3[C@@H]4C[C@H]5O[C@]56[C@@H](O)C=CC(=O)[C@]6(C)[C@H]4CC[C@@]31C)C2` (stereo not given in full): the TGI in assay [1] came out at 9.57 µM; in assay [2] it was 7.16 µM; in assay [3] it was 10.7 µM; in assay [4], 86.7 µM; in [5], 9.94 µM; in assay [6], 36.4 µM. Besides, the TGI in assay [7] is 10.1 µM; in [8] it was 13.3 µM; in assay [9], more than 100 µM.
With `CCCc1cc(=O)n2c(C(=O)Nc3ccccc3OC)c(C(=O)Nc3ccc(F)cc3)sc2n1`, the GI50 in assay [1] is 31 µM; in [2], 24.7 µM; in [3], 38.2 µM; in assay [4], 13.3 µM; in [5], 30.7 µM; in assay [6], 131 µM. The GI50 in assay [7] is 19.8 µM; in assay [8], 5.67 µM; in [10] it was 3.15 µM; in assay [9], 19 µM. In addition, the TGI in assay [1] is 71.1 µM; in assay [2] it was 59 µM; in assay [3], more than 160 µM; in assay [4], 34.6 µM; in assay [5] it was more than 160 µM; in [6] it was more than 160 µM. For the same compound, the TGI in assay [7] is 57.3 µM; in assay [8], 20.7 µM; in assay [10] it was 32.8 µM; in assay [9], 61.7 µM.
For `COc1ccc2c(c1)C(C)Cc1c(Cl)nc(C)nc1N2C` (stereo not given), the GI50 in assay [1] is 2.22 µM; in assay [2] it was 3.17 µM; in [3] it was 2.07 µM; in assay [4], 3.72 µM; in assay [5], 3.01 µM; in assay [6], 2.29 µM. In addition, the GI50 is 5.01 µM in assay [7], 3.58 µM in assay [8], 4.14 µM in assay [10] and 1.74 µM in [9]. The TGI in [1] was 12.3 µM; in [2] it was more than 100 µM; in [3], 5.53 µM; in assay [4], 33.5 µM; in assay [5], 30.7 µM; in assay [6] it was 8.93 µM. Besides, the TGI is more than 100 µM in assay [7], 15.4 µM in assay [8], 36 µM in assay [10] and 7.92 µM in [9].
As to `FC(F)(F)c1ccc(-c2cnc(Cl)nc2NCc2cc(C(F)(F)F)cc(C(F)(F)F)c2)cc1`, the GI50 was 5.59 µM in assay [1]; 3.82 µM in assay [2]; 1.88 µM in [3]; 3.92 µM in [4]; 3.82 µM in assay [6]; 3.94 µM in assay [7]. For the same compound, the GI50 was 3.48 µM in assay [8], 3.08 µM in [10] and 2.66 µM in [9]. The TGI in assay [1] is more than 100 µM; in assay [2] it was more than 100 µM; in assay [3] it was 3.43 µM; in assay [4] it was more than 100 µM; in assay [6], more than 100 µM; in [7] it was more than 100 µM. In addition, the TGI in assay [8], in assay [10] and in [9] was more than 100 µM each time.
`CCN(CC)c1ccc2cc(NC(=O)OCCNC(=O)CCNC(=O)[C@H](CC(C)C)NC(=O)C(C)(C)NC(=O)C(C)(C)NC(=O)[C@H](CC(C)C)NC(=O)CCNC(=O)C(C)(C)NC(=O)[C@H](CC(C)C)NC(=O)CCNC(=O)[C@@](C)(CC)NC(=O)[C@H](C)NC(=O)CCNC(=O)C(C)(C)NC(=O)[C@H](C)NC(=O)[C@@H]3CCCN3C(=O)[C@@](C)(CC)NC(=O)[C@H](Cc3ccccc3)NC(=O)C3CCCN3C(=O)C(C)(C)NC(=O)C3CCCN3C(=O)C(C)(C)NC(C)=O)c(=O)oc2c1` (stereo not given in full) (Ac-[Aib][ξP][Aib][ξP]F[dIva]PA[Aib][βAla]A[dIva][βAla]L[Aib][βAla]L[Aib][Aib]L[βAla][X14]-X15): the GI50 in assay [1] is 0.00367 µM; in [2] it was 0.00465 µM; in assay [3], 0.00237 µM; in assay [4], 0.00497 µM; in [5], 0.00421 µM; in assay [6] it was 0.00477 µM. In addition, the results for the GI50 in assay [7], in assay [8] and in assay [9] were 0.00399 µM, 0.005 µM and 0.00316 µM, respectively. Further, the TGI in assay [1] came to 0.022 µM; in [2] it was 0.0287 µM; in [3] it was 0.006 µM; in [4] it was 0.0199 µM; in assay [5] it was 0.0241 µM; in assay [6], 0.127 µM. The TGI in [7] came to 0.0184 µM; in [8], 0.0939 µM; in assay [9] it was 0.0103 µM.
For the compound `CCOC(=O)c1nc(Nc2ccc(Cl)cc2)c2ccccc2n1`, the GI50 in assay [1] was 10.2 µM; in [3] it was 9.8 µM; in assay [4] it was 7.39 µM; in assay [5] it was 13 µM; in assay [6], 8.46 µM; in assay [8], 12.3 µM. For the same compound, the GI50 in assay [10] was 11.8 µM; in [9] it was 8.09 µM. In addition, the TGI in assay [1] turned out to be 25.5 µM; in assay [3] it was 20.6 µM; in assay [4] it was 15.1 µM; in [5] it was 44.1 µM; in assay [6], 15.6 µM; in assay [8], 28.5 µM. Moreover, the figures for the TGI in assay [10] and in [9] were 30.2 µM and 15.6 µM, respectively.
Regarding `CCN(CC)c1ccc(C(=N)c2ccc(N(C)C)cc2)cc1`, the GI50 in assay [1] was 0.227 µM; in [2], 1.96 µM; in assay [3] it was 0.197 µM; in assay [4], 1.7 µM; in [5], 2.04 µM; in [6], 1.85 µM. In addition, the GI50 in assay [7] was 1.17 µM; in assay [8], 1.94 µM; in assay [9] it was 0.161 µM. Besides, the TGI was determined as 0.966 µM in [1]; 97.8 µM in [2]; 3.06 µM in [3]; 7.18 µM in assay [4]; 16.5 µM in assay [5]; 5.69 µM in [6]. The TGI in assay [7] was found to be 4.55 µM; in assay [8], 6.51 µM; in assay [9], 2.88 µM.
On to `Cc1cn2c(/C=N/Nc3ccccn3)c(-c3ccc(Cl)c([N+](=O)[O-])c3)nc2s1`, for which the GI50 in assay [1] was 21.1 µM; in [3], more than 50 µM; in assay [4], 6.39 µM; in [5] it was 21.6 µM; in assay [6], more than 50 µM; in [8] it was 8.96 µM. For the same compound, the figures for the GI50 in [10] and in assay [9] were 30.2 µM and 23 µM, respectively. Besides, the TGI in assay [1] is more than 50 µM; in assay [3], more than 50 µM; in [4] it was 29.8 µM; in assay [5], more than 50 µM; in assay [6], more than 50 µM; in assay [8], 19.8 µM. Moreover, the TGI in assay [10] and in assay [9] was more than 50 µM in each case.
